Test system: whole blood
Assay: ROTEM whole blood coagulation with rabbit brain-derived tissue thromboplastin (TP) + Ca 12 mM (CTI 20 μg/mL, PKSI-527 40 μM where stated)
Assay type: cell-based
[1] = Ex11, TP 16.6 μg/mL+Ca+CTI+PKSI-527, heparan sulfate 1 μg/mL, no rTM
[2] = Ex11, TP 16.6 μg/mL+Ca+CTI+PKSI-527, heparan sulfate 1 μg/mL, rTM 50 μM (title: 50 nM)
[3] = Ex11, TP 16.6 μg/mL+Ca+CTI+PKSI-527, heparan sulfate 3 μg/mL, no rTM
[4] = Ex11, TP 16.6 μg/mL+Ca+CTI+PKSI-527, heparan sulfate 3 μg/mL, rTM 50 μM (title: 50 nM)
[5] = Ex11, TP 16.6 μg/mL+Ca+CTI+PKSI-527, heparan sulfate 10 μg/mL, no rTM
[6] = Ex11, TP 16.6 μg/mL+Ca+CTI+PKSI-527, heparan sulfate 10 μg/mL, rTM 50 μM (title: 50 nM)
[7] = Ex11, TP 16.6 μg/mL+Ca+CTI+PKSI-527, heparan sulfate 15 μg/mL, no rTM
[8] = Ex11, TP 16.6 μg/mL+Ca+CTI+PKSI-527, heparan sulfate 15 μg/mL, rTM 50 μM (title: 50 nM)
[9] = Ex11, TP 16.6 μg/mL+Ca+CTI+PKSI-527, heparan sulfate 20 μg/mL, no rTM
[10] = Ex11, TP 16.6 μg/mL+Ca+CTI+PKSI-527, heparan sulfate 20 μg/mL, rTM 50 μM (title: 50 nM)
[11] = Ex11, TP 16.6 μg/mL+Ca+CTI+PKSI-527, heparan sulfate 30 μg/mL, no rTM
[12] = Ex11, TP 16.6 μg/mL+Ca+CTI+PKSI-527, heparan sulfate 30 μg/mL, rTM 50 μM (title: 50 nM)
[13] = Ex12, TP 16.6 μg/mL+Ca+CTI+PKSI-527, heparan sulfate 5 μg/mL, no rTM
[14] = Ex12, TP 16.6 μg/mL+Ca+CTI+PKSI-527, heparan sulfate 5 μg/mL, rTM 100 μM (title: 100 nM)
[15] = Ex13, TP 0.033 μg/mL+Ca+CTI+PKSI-527, heparan sulfate 0.5 μg/mL, no rTM
[16] = Ex13, TP 0.033 μg/mL+Ca+CTI+PKSI-527, heparan sulfate 0.5 μg/mL, rTM 9 μM (title: 9 nM)
[17] = Ex14, TP 0.033 μg/mL+Ca+CTI+PKSI-527, heparan sulfate 0.1 μg/mL, no rTM
[18] = Ex14, TP 0.033 μg/mL+Ca+CTI+PKSI-527, heparan sulfate 0.1 μg/mL, rTM 10 nM
[19] = Ex14, TP 0.033 μg/mL+Ca+CTI+PKSI-527, heparan sulfate 0.2 μg/mL, no rTM
[20] = Ex14, TP 0.033 μg/mL+Ca+CTI+PKSI-527, heparan sulfate 0.2 μg/mL, rTM 10 nM
[21] = Ex14, TP 0.033 μg/mL+Ca+CTI+PKSI-527, heparan sulfate 0.3 μg/mL, no rTM
[22] = Ex14, TP 0.033 μg/mL+Ca+CTI+PKSI-527, heparan sulfate 0.3 μg/mL, rTM 10 nM
[23] = Ex14, TP 0.033 μg/mL+Ca+CTI+PKSI-527, heparan sulfate 0.4 μg/mL, no rTM
[24] = Ex14, TP 0.033 μg/mL+Ca+CTI+PKSI-527, heparan sulfate 0.4 μg/mL, rTM 10 nM
[25] = Ex14, TP 0.033 μg/mL+Ca+CTI+PKSI-527, heparan sulfate 0.5 μg/mL, no rTM
[26] = Ex14, TP 0.033 μg/mL+Ca+CTI+PKSI-527, heparan sulfate 0.5 μg/mL, rTM 10 nM
[27] = Ex15, TP 0.033 μg/mL+Ca+CTI+PKSI-527, heparan sulfate 0.1 μg/mL, no rTM
[28] = Ex15, TP 0.033 μg/mL+Ca+CTI+PKSI-527, heparan sulfate 0.1 μg/mL, rTM 5 nM
[29] = Ex15, TP 0.033 μg/mL+Ca+CTI+PKSI-527, heparan sulfate 0.2 μg/mL, no rTM

Heparan sulfate
clotting time (CT) (Ex3/Ex9, TP 0.9 μg/mL+Startem, heparan sulfate 1 μg/mL, rTM 20 nM): 319 s | clotting time (CT) (Ex4, TP 0.9 μg/mL+Ca+CTI+PKSI-527, heparan sulfate 1 μg/mL, no rTM): 162 s | clotting time (CT) (Ex9, TP 0.9 μg/mL+Startem, heparan sulfate 1 μg/mL, no rTM): 154 s | clotting time (CT) (Ex10, TP 0.45 μg/mL+Startem, heparan sulfate 1 μg/mL, no rTM): 251 s | CFT (clot formation time) [1]: 93 s | CT (clotting time) [1]: 58 s | CFT (clot formation time) [2]: 72 s | CT (clotting time) [2]: 55 s | CFT (clot formation time) [3]: 93 s | CT (clotting time) [3]: 62 s | CFT (clot formation time) [4]: 73 s | CT (clotting time) [4]: 62 s | CFT (clot formation time) [5]: 55 s | CT (clotting time) [5]: 94 s | CFT (clot formation time) [6]: 95 s | CT (clotting time) [6]: 143 s | CFT (clot formation time) [7]: 66 s | CT (clotting time) [7]: 120 s | CFT (clot formation time) [8]: 255 s | CT (clotting time) [8]: 255 s | CFT (clot formation time) [9]: 61 s | CT (clotting time) [9]: 144 s | CFT (clot formation time) [10]: No CFT | CT (clotting time) [10]: No CT | CFT (clot formation time) [11]: 69 s | CT (clotting time) [11]: 193 s | CFT (clot formation time) [12]: No CFT | CT (clotting time) [12]: No CT | blood clotting time (Ex11, TP 16.6 μg/mL+Ca+CTI+PKSI-527, heparan sulfate 20 or 30 μg/mL, rTM 50 nM): ≥ 1 h | CFT (clot formation time) [13]: 76 s | CT (clotting time) [13]: 65 s | CFT (clot formation time) [14]: 69 s | CT (clotting time) [14]: 96 s | CFT (clot formation time) [15]: 248 s | CT (clotting time) [15]: 837 s | CFT (clot formation time) [16]: 1484 s | CT (clotting time) [16]: 1355 s | CFT (clot formation time) [17]: 182 s | CT (clotting time) [17]: 572 s | CFT (clot formation time) [18]: 240 s | CT (clotting time) [18]: 797 s | CFT (clot formation time) [19]: 224 s | CT (clotting time) [19]: 686 s | CFT (clot formation time) [20]: 215 s | CT (clotting time) [20]: 829 s | CFT (clot formation time) [21]: 171 s | CT (clotting time) [21]: 688 s | CFT (clot formation time) [22]: 290 s | CT (clotting time) [22]: 802 s | CFT (clot formation time) [23]: 206 s | CT (clotting time) [23]: 762 s | CFT (clot formation time) [24]: 733 s | CT (clotting time) [24]: 1360 s | CFT (clot formation time) [25]: 248 s | CT (clotting time) [25]: 837 s | CFT (clot formation time) [26]: 660 s | CT (clotting time) [26]: 1266 s | CFT (clot formation time) [27]: 182 s | CT (clotting time) [27]: 572 s | CFT (clot formation time) [28]: 230 s | CT (clotting time) [28]: 711 s | CFT (clot formation time) [29]: 224 s | CT (clotting time) [29]: 686 s | CFT (clot formation time) (Ex15, TP 0.033 μg/mL+Ca+CTI+PKSI-527, heparan sulfate 0.2 μg/mL, rTM 5 nM): 209 s

Source: patent publication US20240060999A1, “BLOOD COAGULATION INSPECTION METHOD” (FUJIMORI KOGYO CO., LTD, priority 2020, published 2024)
